From article PMC7162492, “Pharmacological and pharmacokinetic profile of the novel ocular hypotensive prodrug CKLP1 in Dutch-belted pigmented rabbits” (PLoS ONE, 2020)
Where “and” joins values, the source holds several entries; their conditions need not be identical. Identical values can stand only once.

Columns and labels:
[1] = system: IOP in Dutch-belted pigmented rabbits; experiment: IOP measurement by rebound tonometer during 90 days of topical CKLP1; format: in vivo
Text: (§1) All experiments with animals were pre-approved by the Institutional Animal Care and Use Committee of the Mayo Clinic, Rochester, MN and adhered to the recommendations in the Guide for the Care and use of Laboratory Animals of the National Institutes of Health, and the tenets of the ARVO Statement for the Use of Animals in Vision Research. Female Dutch-belted pigmented rabbits (age 7 months) were obtained from Covance Research Products, Inc. (Denver, PA). Rabbits were housed in pairs and kept in a climate controlled room with 12 h light and dark cycles. Animals had unrestrained access to water and standard rabbit food pellets at all times. Upon receipt, animals were acclimated for at least 5 days before initiation of the experiment. IOP was measured with a handheld rebound tonometer (Icare Tonovet, Colonial Medical Supply, Franconia, NH, USA) in conscious and minimally restrained, non-anesthetized rabbits as previously described. Briefly, daily IOP was calculated from the average of 3 independent IOP measurements at 3 different time points each day. These time points corresponded to 1 h, 4 h and 23 h post treatment on any given day. Rabbits that needed to be handled for IOP were subjected to sham IOP measurements for two days prior to initiation of experiment. Rabbits (n = 3) were injected intravenously through the right ear vein with CKLP1 as a bolus dose equal to 0.25 mg/kg body weight. Additional rabbits were treated topically through instillation of 50 μl eye drops of a 10 mM (4.1 mg/ml) solution of CKLP1 in sterile PBS. Topical CKLP1 application was continued once daily (9:30 am every day) for either 1 (n = 3), 4 (n = 3), 8 (n = 3) or 90 days (n = 6). In the 1, 4 and 8 day groups, drug was added to both eyes, whereas in the 90 day group, CKLP1 was added to one eye while the contralateral eye received vehicle (PBS, Corning, Manassas, VA).
IOP values are represented as mean ± standard deviation. IOP differences between treated and control eyes were compared using two-tailed paired Student’s t-test. Pharmacokinetic parameters (Cmax, Tmax, AUC and concentration of CKLP1 and levcromakalim) across various days following treatment were compared with one-way ANOVA. Criterion for statistically significant difference of means was set at p<0.05. Statistical analyses were performed using Microsoft Excel and its data analysis add-on feature.

[2] = Plasma pharmacokinetics after topical eye drops of CKLP1, days 1, 4 and 8 (LC-MS/MS); format: in vivo, Dutch-belted pigmented rabbits; conditions: for AUClast / Clast / Cmax / Tlast / Tmax / half-life: plasma
Method: LC-MS/MS analysis of all fluids were performed using a Waters (Milford, MA) Acquity UPLC BEH C18 column (1.7 μm, 2.1 x 50 mm) with an Agilent EC-C18 pre-column (2.7 μm, 2.1 x 5 mm) and a gradient elution program containing ultra-pure water and acetonitrile with 2.5 mM ammonium formate, at a flow rate of 0.2 ml/min. Flavopiridol was used as an internal standard. The column and auto-sampler temperatures were maintained at 40°C and 4°C, respectively. Source parameters were capillary voltage, 2.6 kV; source temperature, 150°C; desolvation temperature, 500°C; cone gas flow, 150 L/h; and desolvation gas flow, 800 L/h. The cone voltages and collision energies for CKLP1, levcromakalim and flavopiridol were determined by MassLynx-Intellistart software, v4.1, and were 32, 34 and 72 V (cone) and 20, 14 and 30 eV (collision), respectively. The retention times were 4.5 minutes for CKLP1, 5.9 minutes for levcromakalim and 5.7 minutes for flavopiridol.
To validate accurate measurement of CKLP1 and levcromakalim, known concentrations of CKLP1 (5, 10, 25, 50, 100, 250, 500 ng/ml) and levcromakalim (1, 5, 10, 25, 50, 100, 250 ng/ml) were added to human plasma (obtained from the Mayo Clinic Division of Transfusion Medicine under an Institutional Review Board approved protocol) to make calibration curves. Quality control was determined for each run by using known quantities of CKLP1 and levcromakalim to verify that the instrument recorded values consistent with the established standard curve. The effect of carryover was evaluated by injecting blank samples before and after running the standard samples for calibration curves. Unknown samples with signal to noise ratios >10 were recorded as acceptable concentrations. Samples with signal to noise ratios <10 were reported as not detectable (ND). Controls consisted of a double blank (without analytes and internal standard) and a single blank (only internal standard). The linearity of the calibration curves was determined by plotting the ratios of analytes to internal standard peak areas. The curve was fitted by least squares regression with a 1/x weighting for both CKLP1 and levcromakalim. Data was collected from 3–6.4 minutes for CKLP1 and 4–8 minutes for both levcromakalim and flavopiridol. Waters MassLynx Intellistart software v4.1 was used for analysis.
as §1, with “Topical CKLP1 application was continued once daily (9:30 am every day) for either 1 (n = 3), 4 (n = 3), 8 (n = 3) or 90 days (n = 6). In the 1, 4 and 8 day groups, drug was added to both eyes, whereas in the 90 day group, CKLP1 was added to one eye while the contralateral eye received vehicle (PBS, Corning, Manassas, VA).” left out

[3] = 10 mM CKLP1 eye drop daily, 90 days
[4] = eye drops 10 mM CKLP1 both eyes once daily, Day 4
[5] = eye drops 10 mM CKLP1 both eyes once daily, Day 8
[6] = eye drops 10 mM CKLP1 both eyes, Day 1

Substance: sodium [CKLP1, sodium [(3S,4R)-6-cyano-2,2-dimethyl-4-(2-oxopyrrolidin-1-yl)-chroman-3-yl phosphate]]
- IOP drop in the treated eye compared to baseline [1, 3]: 11.4 ± 4.7% and 11.4%
- IOP reduction in treated eye compared to contralateral vehicle treated eye [1, 3]: 14.1 ± 1.0%
- IOP absolute change in treated eyes compared to control eyes ([1]; 10 mM CKLP1 eye drop daily, 90 days, n = 6): 2.4 ± 0.4 mmHg
- IOP in the treated eye ([1]; 10 mM CKLP1 eye drop daily, 90 days, baseline 16.5 ± 0.7): 14.6 ± 1.0 mm Hg
- Average IOP in treated eyes post treatment (washout group) ([1]; after cessation of 90-day treatment, n = 3, baseline 16.5 ± 0.7): 15.6 ± 0.6 mm Hg
- AUClast [2, 4]: 360 ± 82 ng·h/mL
- Clast [2, 4]: 4.2 ± 2.6 ng/mL
- Cmax [2, 4]: 30.6 ± 7.3 ng/mL
- Tlast [2, 4]: 24.0 ± 0.0 h
- Tmax [2, 4]: 325.0 ± 268.5 min
- half-life [2, 4]: 6.7 ± 2.0 min
- AUClast [2, 5]: 341 ± 45.2 ng·h/mL
- Clast [2, 5]: 4.2 ± 1.5 ng/mL
- Cmax [2, 5]: 36.3 ± 13.3 ng/mL
- Tlast [2, 5]: 24.0 ± 0.0 h
- Tmax [2, 5]: 20.0 ± 8.7 min
- half-life [2, 5]: 7.7 ± 3.0 min
- AUClast [2, 6]: 271 ± 55 ng·h/mL
- Clast [2, 6]: 5.1 ± 1.1 ng/mL
- Cmax [2, 6]: 20.0 ± 6.3 ng/mL
- Tlast [2, 6]: 24.0 ± 0.0 h
- Tmax [2, 6]: 360.0 ± 207.9 min
- half-life [2, 6]: 10.7 ± 4.1 min
- Amount in plasma after topical CKLP1 ([2]; topical 10 mM CKLP1 in the eye): trace amounts
